Data from PubChem BioAssay (NCI).
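Five concentrations, 48 hours, 96-well plates. GI50 is the concentration that inhibits growth by half. TGI is the concentration that stops growth completely.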

How the values were obtained:
Assay in all cases: NCI anticancer screen, dose series, 48 h
786-0 renal = system: 786-0 renal
A498 renal = system: A498 renal
A549 NSCLC = system: A549 NSCLC
ACHN renal = system: ACHN renal
BT-549 breast = system: BT-549 breast
CAKI-1 renal = system: CAKI-1 renal
CCRF-CEM leukemia = system: CCRF-CEM leukemia
COLO 205 colon = system: COLO 205 colon
DU-145 prostate = system: DU-145 prostate
EKVX NSCLC = system: EKVX NSCLC
HCC-2998 colon = system: HCC-2998 colon
HCT-116 colon = system: HCT-116 colon
HCT-15 colon = system: HCT-15 colon
HL-60(TB) leukemia = system: HL-60(TB) leukemia
HOP-62 NSCLC = system: HOP-62 NSCLC
HOP-92 NSCLC = system: HOP-92 NSCLC
HS 578T breast = system: HS 578T breast
HT29 colon = system: HT29 colon
IGROV1 ovarian = system: IGROV1 ovarian
K-562 leukemia = system: K-562 leukemia
KM12 colon = system: KM12 colon
LOX IMVI melanoma = system: LOX IMVI melanoma
MALME-3M melanoma = system: MALME-3M melanoma
MCF7 breast = system: MCF7 breast
MDA-MB-231 breast = system: MDA-MB-231 breast
MDA-MB-435 = system: MDA-MB-435
MOLT-4 leukemia = system: MOLT-4 leukemia
NCI-H226 lung = system: NCI-H226 lung
NCI-H23 lung = system: NCI-H23 lung
NCI-H460 lung = system: NCI-H460 lung
NCI-H522 lung = system: NCI-H522 lung
NCI/ADR-RES ovarian = system: NCI/ADR-RES ovarian
OVCAR-3 ovarian = system: OVCAR-3 ovarian
OVCAR-4 ovarian = system: OVCAR-4 ovarian
OVCAR-5 ovarian = system: OVCAR-5 ovarian
OVCAR-8 ovarian = system: OVCAR-8 ovarian
PC-3 prostate = system: PC-3 prostate
RPMI-8226 leukemia = system: RPMI-8226 leukemia
RXF 393 renal = system: RXF 393 renal
SF-268 CNS = system: SF-268 CNS
SF-295 CNS = system: SF-295 CNS
SF-539 CNS = system: SF-539 CNS
SK-MEL-2 melanoma = system: SK-MEL-2 melanoma
SK-MEL-28 melanoma = system: SK-MEL-28 melanoma
SK-MEL-5 melanoma = system: SK-MEL-5 melanoma
SK-OV-3 ovarian = system: SK-OV-3 ovarian
SN12C renal = system: SN12C renal
SNB-19 CNS = system: SNB-19 CNS
SNB-75 CNS = system: SNB-75 CNS
SR leukemia = system: SR leukemia
SW-620 colon = system: SW-620 colon
T-47D breast = system: T-47D breast
TK-10 renal = system: TK-10 renal
U251 CNS = system: U251 CNS
UACC-257 melanoma = system: UACC-257 melanoma
UACC-62 melanoma = system: UACC-62 melanoma
UO-31 renal = system: UO-31 renal

CSC1=Nc2c(c(C)c(C)n2COC(CO)CO)C2=NC(=O)CC(C)N12 (centres undefined)
GI50 (786-0 renal): > 100 µM | TGI (786-0 renal): > 100 µM | GI50 (A498 renal): > 100 µM | TGI (A498 renal): > 100 µM | GI50 (A549 NSCLC): > 100 µM | TGI (A549 NSCLC): > 100 µM | GI50 (ACHN renal): > 100 µM | TGI (ACHN renal): > 100 µM | GI50 (BT-549 breast): > 100 µM | TGI (BT-549 breast): > 100 µM | GI50 (CAKI-1 renal): > 100 µM | TGI (CAKI-1 renal): > 100 µM | GI50 (CCRF-CEM leukemia): 16.5 µM | TGI (CCRF-CEM leukemia): 49.5 µM | GI50 (COLO 205 colon): > 100 µM | TGI (COLO 205 colon): > 100 µM | GI50 (DU-145 prostate): > 100 µM | TGI (DU-145 prostate): > 100 µM | GI50 (EKVX NSCLC): > 100 µM | TGI (EKVX NSCLC): > 100 µM | GI50 (HCC-2998 colon): > 100 µM | TGI (HCC-2998 colon): > 100 µM | GI50 (HCT-116 colon): > 100 µM | TGI (HCT-116 colon): > 100 µM | GI50 (HCT-15 colon): > 100 µM | TGI (HCT-15 colon): > 100 µM | GI50 (HL-60(TB) leukemia): 0.0864 µM | TGI (HL-60(TB) leukemia): > 100 µM | GI50 (HOP-62 NSCLC): > 100 µM | TGI (HOP-62 NSCLC): > 100 µM | GI50 (HOP-92 NSCLC): > 100 µM | TGI (HOP-92 NSCLC): > 100 µM | GI50 (HS 578T breast): > 100 µM | TGI (HS 578T breast): > 100 µM | GI50 (HT29 colon): > 100 µM | TGI (HT29 colon): > 100 µM | GI50 (IGROV1 ovarian): > 100 µM | TGI (IGROV1 ovarian): > 100 µM | GI50 (K-562 leukemia): > 100 µM | TGI (K-562 leukemia): > 100 µM | GI50 (KM12 colon): > 100 µM | TGI (KM12 colon): > 100 µM | GI50 (LOX IMVI melanoma): > 100 µM | TGI (LOX IMVI melanoma): > 100 µM | GI50 (MALME-3M melanoma): > 100 µM | TGI (MALME-3M melanoma): > 100 µM | GI50 (MCF7 breast): > 100 µM | TGI (MCF7 breast): > 100 µM | GI50 (MDA-MB-231 breast): > 100 µM | TGI (MDA-MB-231 breast): > 100 µM | GI50 (MDA-MB-435): > 100 µM | TGI (MDA-MB-435): > 100 µM | GI50 (MOLT-4 leukemia): > 100 µM | TGI (MOLT-4 leukemia): > 100 µM | GI50 (NCI-H226 lung): > 100 µM | TGI (NCI-H226 lung): > 100 µM | GI50 (NCI-H23 lung): > 100 µM | TGI (NCI-H23 lung): > 100 µM | GI50 (NCI-H460 lung): > 100 µM | TGI (NCI-H460 lung): > 100 µM | GI50 (NCI-H522 lung): > 100 µM | TGI (NCI-H522 lung): > 100 µM | GI50 (NCI/ADR-RES ovarian): > 100 µM | TGI (NCI/ADR-RES ovarian): > 100 µM | GI50 (OVCAR-3 ovarian): > 100 µM | TGI (OVCAR-3 ovarian): > 100 µM | GI50 (OVCAR-4 ovarian): > 100 µM | TGI (OVCAR-4 ovarian): > 100 µM | GI50 (OVCAR-5 ovarian): > 100 µM | TGI (OVCAR-5 ovarian): > 100 µM | GI50 (OVCAR-8 ovarian): > 100 µM | TGI (OVCAR-8 ovarian): > 100 µM | GI50 (PC-3 prostate): > 100 µM | TGI (PC-3 prostate): > 100 µM | GI50 (RPMI-8226 leukemia): > 100 µM | TGI (RPMI-8226 leukemia): > 100 µM | GI50 (RXF 393 renal): > 100 µM | TGI (RXF 393 renal): > 100 µM | GI50 (SF-268 CNS): > 100 µM | TGI (SF-268 CNS): > 100 µM | GI50 (SF-295 CNS): > 100 µM | TGI (SF-295 CNS): > 100 µM | GI50 (SF-539 CNS): > 100 µM | TGI (SF-539 CNS): > 100 µM | GI50 (SK-MEL-2 melanoma): > 100 µM | TGI (SK-MEL-2 melanoma): > 100 µM | GI50 (SK-MEL-28 melanoma): > 100 µM | TGI (SK-MEL-28 melanoma): > 100 µM | GI50 (SK-MEL-5 melanoma): > 100 µM | TGI (SK-MEL-5 melanoma): > 100 µM | GI50 (SK-OV-3 ovarian): > 100 µM | TGI (SK-OV-3 ovarian): > 100 µM | GI50 (SN12C renal): > 100 µM | TGI (SN12C renal): > 100 µM | GI50 (SNB-19 CNS): > 100 µM | TGI (SNB-19 CNS): > 100 µM | GI50 (SNB-75 CNS): 30.7 µM | TGI (SNB-75 CNS): > 100 µM | GI50 (SR leukemia): > 100 µM | TGI (SR leukemia): > 100 µM | GI50 (SW-620 colon): > 100 µM | TGI (SW-620 colon): > 100 µM | GI50 (T-47D breast): > 100 µM | TGI (T-47D breast): > 100 µM | GI50 (TK-10 renal): > 100 µM | TGI (TK-10 renal): > 100 µM | GI50 (U251 CNS): > 100 µM | TGI (U251 CNS): > 100 µM | GI50 (UACC-257 melanoma): > 100 µM | TGI (UACC-257 melanoma): > 100 µM | GI50 (UACC-62 melanoma): > 100 µM | TGI (UACC-62 melanoma): > 100 µM | GI50 (UO-31 renal): > 100 µM | TGI (UO-31 renal): > 100 µM
